Consider 13 compounds from ChEMBL document CHEMBL1201862, “PubChem BioAssay data set” (2004).

What all share (assay): growth of human tumour cells (NCI), 48 h
Experiment [1] has as its system 786-0.
Experiment [2] concerns CAKI-1.
Experiment [3] has as its system CCRF-CEM.
Experiment [4] deals with DU-145.
Experiment [5] has as its system HCT-116.
Experiment [6] deals with HT-29.
Experiment [7] concerns Hs-578T.
The test system of experiment [8] is IGROV-1.
For experiment [9], the system named is OVCAR-3.
Experiment [10] relates to OVCAR-5.
The test system of experiment [11] is RPMI-8226.
In experiment [12] the test system is SK-MEL-2.
In experiment [13] the test system is SNB-75.
Experiment [14] concerns T47D.
In experiment [15] the test system is U-251.
The subject of experiment [16] is UACC-62.
In experiment [17] the test system is HOP-92.

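Test compounds were applied to cells in 96-well plates for 48 hours at 5 doses. GI50 marks 50% less growth.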 Calls of active or inactive are those of the source. No stated cut-off is given here; in the data, active = GI50 up to about 1.1 µM and inactive = higher. Where only a bound is given, the exact number is not on record here.

`COC(=O)C1=COc2c(n(C)c3ccccc23)-c2ccccc21`: the GI50 in [1], in experiment [2], in [3], in experiment [4], in experiment [5] and in experiment [6] was > 100 µM (inactive) each time. Also, the GI50 in experiment [7] was > 100 µM (inactive); in experiment [8], 20.2 µM (inactive); in experiment [9], > 100 µM (inactive); in experiment [10] it was > 100 µM (inactive); in experiment [11], 97.3 µM (inactive); in experiment [12], > 100 µM (inactive). The GI50 in experiment [13] was 27.6 µM (inactive); in experiment [14], > 100 µM (inactive); in experiment [15] it was > 100 µM (inactive); in [16], > 100 µM (inactive).

Consider `CC(C)(C)/C(=N\Nc1nc2ccccc2[nH]1)c1ccccn1`, for which the GI50 in experiment [1] is > 100 µM (inactive); in experiment [2], 48.2 µM (inactive); in [3] it was 46.1 µM (inactive); in experiment [4], 95.9 µM (inactive); in [5], 22.8 µM (inactive); in experiment [17], 24.9 µM (inactive). Also, the GI50 was 26.2 µM (inactive) in experiment [6]; > 100 µM (inactive) in experiment [7]; 80.7 µM (inactive) in experiment [8]; 24.3 µM (inactive) in experiment [9]; 12.9 µM (inactive) in experiment [11]; > 100 µM (inactive) in experiment [12]. The figures for the GI50 in experiment [14], in [15] and in experiment [16] were 21 µM (inactive), > 100 µM (inactive) and > 100 µM (inactive), respectively.

As for `CCc1cc2c(oc3cc(C)ccc32)c(=O)n1C`, the GI50 in experiment [1], in [3], in experiment [4], in experiment [5], in experiment [17] and in experiment [6] was > 10 µM (inactive) in each case. Also, the GI50 in experiment [7], in experiment [8], in [9], in experiment [10], in [12] and in [13] was > 10 µM (inactive) throughout. Further, the GI50 in experiment [14] and in experiment [15] was > 10 µM (inactive) each time.

On to `COC1(OC)CC(CO)(CNc2nc(N)nc(Cl)c2/C=N\O)C1`, for which the GI50 is 44.2 µM (inactive) in [1]; 57.4 µM (inactive) in experiment [2]; 47.1 µM (inactive) in experiment [3]; 34.3 µM (inactive) in experiment [4]; 50.4 µM (inactive) in experiment [5]; 13.6 µM (inactive) in experiment [17]. Also, the GI50 was 38.4 µM (inactive) in [6]; 22.7 µM (inactive) in [7]; 21.3 µM (inactive) in [8]; 21.7 µM (inactive) in experiment [9]; 20.7 µM (inactive) in experiment [10]; 13.6 µM (inactive) in experiment [11]. Also, the GI50 is 48.8 µM (inactive) in [13] and 43.7 µM (inactive) in experiment [15].

Turning to `Cc1nnc2n1-c1ccccc1-c1[nH]c3ccccc3c1C2`, the GI50 in [1] was 83.8 µM (inactive); in [2], 51.1 µM (inactive); in [3], 53.8 µM (inactive); in experiment [4] it was > 100 µM (inactive); in [5], 54.8 µM (inactive); in experiment [17], 93.8 µM (inactive). The GI50 was 68.2 µM (inactive) in [6]; > 100 µM (inactive) in experiment [7]; 70 µM (inactive) in experiment [8]; 76.6 µM (inactive) in experiment [9]; > 100 µM (inactive) in experiment [10]; 32.2 µM (inactive) in experiment [11]. The GI50 in [13] is 8.24 µM (inactive); in [14], > 100 µM (inactive); in experiment [16], 25.1 µM (inactive).

As for `CC(=O)Nc1ccc2c(c1)[nH]c(=O)c1cc(Cl)ccc12`, the GI50 in [1] is 65.6 µM (inactive); in experiment [2] it was 0.51 µM (active); in [3] it was 0.341 µM (active); in [4], 19.9 µM (inactive); in experiment [5], 17.4 µM (inactive); in [6] it was 15.4 µM (inactive). Moreover, the GI50 in experiment [7] was 94 µM (inactive); in experiment [8] it was 6.75 µM (inactive); in experiment [10] it was 27 µM (inactive); in [12] it was 46.6 µM (inactive); in experiment [13], 52.4 µM (inactive); in experiment [14] it was 57.9 µM (inactive). Besides, the GI50 in experiment [15] was 34.3 µM (inactive); in [16] it was 12.3 µM (inactive).

As for `O=C(CN1C(=O)c2ccccc2C1=O)C(O)CN1C(=O)c2ccccc2C1=O` (stereo not given), the GI50 is 28 µM (inactive) in experiment [1]; > 100 µM (inactive) in experiment [2]; 47.2 µM (inactive) in experiment [4]; > 100 µM (inactive) in [5]; 32.4 µM (inactive) in experiment [17]; > 100 µM (inactive) in [6]. The GI50 in experiment [7] is 34.7 µM (inactive); in experiment [8], 43.7 µM (inactive); in experiment [9] it was > 100 µM (inactive); in experiment [10] it was > 100 µM (inactive); in experiment [11], > 100 µM (inactive); in experiment [12], > 100 µM (inactive). Moreover, the GI50 in [13] was 16 µM (inactive); in experiment [14] it was 93.5 µM (inactive); in [15], 29.1 µM (inactive); in [16] it was > 100 µM (inactive).

In the case of `COc1c(N2CCCCC2)c2c(=O)c3ccccc3oc2c2c3ccccc3n(C)c12`, the GI50 in [1] was > 100 µM (inactive); in experiment [2], > 100 µM (inactive); in [3] it was 64.3 µM (inactive); in [4] it was > 100 µM (inactive); in experiment [5], 53.1 µM (inactive); in experiment [17], > 100 µM (inactive). The GI50 in experiment [6] is 42.4 µM (inactive); in experiment [7], > 100 µM (inactive); in experiment [9], > 100 µM (inactive); in experiment [10], > 100 µM (inactive); in experiment [11], 47.1 µM (inactive); in [12], > 100 µM (inactive). In addition, the GI50 in experiment [13], in experiment [15] and in [16] was > 100 µM (inactive) in each case.

Regarding `CS(=O)(=O)CCC1CCC(=O)O1` (stereo not given), the GI50 in experiment [1] was > 100 µM (inactive); in experiment [2], > 100 µM (inactive); in [3], > 10 µM (inactive); in experiment [4] it was 96.8 µM (inactive); in [5] it was 48.6 µM (inactive); in experiment [17] it was > 100 µM (inactive). Moreover, the GI50 was > 100 µM (inactive) in experiment [6]; 49 µM (inactive) in [7]; > 100 µM (inactive) in experiment [8]; > 100 µM (inactive) in [9]; > 100 µM (inactive) in [10]; > 100 µM (inactive) in [11]. For the same compound, the GI50 in experiment [13] is 97.9 µM (inactive); in experiment [14] it was > 100 µM (inactive); in experiment [15], > 100 µM (inactive).

With `CCC1c2[nH]c3ccccc3c2C[C@H]2C(=O)NC(Cc3ccccc3)C(=O)N12` (stereo not given in full), the GI50 in experiment [1] is 36 µM (inactive); in experiment [2] it was 35.4 µM (inactive); in experiment [4], 40 µM (inactive); in [5], 24.7 µM (inactive); in experiment [17], 34.2 µM (inactive); in experiment [6], 23.5 µM (inactive). Also, the GI50 in experiment [7] is 12.4 µM (inactive); in experiment [8], 28.8 µM (inactive); in [9], 31 µM (inactive); in [10], 25.2 µM (inactive); in experiment [11], 20.2 µM (inactive); in experiment [12], 20.9 µM (inactive). For the same compound, the figures for the GI50 in experiment [14], in experiment [15] and in experiment [16] were 22 µM (inactive), 22.8 µM (inactive) and 17.2 µM (inactive), respectively.

Consider `O=CNNC(=O)Nc1cccc2ccccc12`, for which the GI50 in experiment [1] was > 100 µM (inactive); in experiment [3], > 100 µM (inactive); in experiment [4], > 100 µM (inactive); in experiment [5], > 100 µM (inactive); in [17], > 10 µM (inactive); in [6], > 100 µM (inactive). In addition, the GI50 in experiment [7], in [8], in [10], in experiment [11], in experiment [13] and in experiment [14] was > 100 µM (inactive) throughout. The GI50 in experiment [15] and in experiment [16] was > 100 µM (inactive) in each case.

Turning to `O=C(OCCN=C1c2ccccc2CCc2ccccc21)c1cc([N+](=O)[O-])cc([N+](=O)[O-])c1`, the GI50 in [1] is > 31.6 µM (inactive); in experiment [2], 29.3 µM (inactive); in experiment [3] it was 74.6 µM (inactive); in experiment [4], > 31.6 µM (inactive); in [5], > 31.6 µM (inactive); in experiment [17], > 31.6 µM (inactive). The GI50 in [6] was > 31.6 µM (inactive); in experiment [7], > 31.6 µM (inactive); in experiment [8], 28.2 µM (inactive); in experiment [9], 23.3 µM (inactive); in [10], > 31.6 µM (inactive); in experiment [11] it was 5.09 µM (inactive). Moreover, the GI50 in [12] is > 31.6 µM (inactive); in experiment [13], > 100 µM (inactive); in experiment [15] it was > 100 µM (inactive); in experiment [16] it was > 31.6 µM (inactive).

Take `C=C(C)CN(CC#N)CC(=C)C`: the GI50 in [1], in experiment [2], in experiment [3], in experiment [4], in experiment [5] and in [6] was > 100 µM (inactive) in each case. Further, the GI50 in experiment [7] is 83.2 µM (inactive); in experiment [8] it was > 100 µM (inactive); in experiment [9], > 100 µM (inactive); in experiment [10] it was > 100 µM (inactive); in experiment [11], > 100 µM (inactive); in [12], > 100 µM (inactive). Also, the GI50 in experiment [13], in experiment [14], in [15] and in experiment [16] was > 100 µM (inactive) each time.
